Here are results for six compounds from publication PMC4281103 (Journal of Medicinal Chemistry, 2014).

Data set [1] concerns the target human κ-opioid receptor (Homo sapiens, UniProt P41145). It is filed as cell-based.
Data set [2] concerns the target human μ-opioid receptor (Homo sapiens, UniProt P35372). Briefly: Inhibition of forskolin-induced cAMP accumulation in MOR-CHO cells. It is filed as cell-based. To be noted: selectivity for KOR.
Data set [3] concerns male Sprague–Dawley rats. Kind of data set: Rat spontaneous locomotor activity. To be noted: acute ip; 2 1.0 mg/kg, 24 1.0 mg/kg, 36 0.3 mg/kg; total ambulatory counts over 60 min. The class given is in vivo.
Data set [4] relates to male Sprague–Dawley rats. Kind of data set: Rat reinstatement assay: cocaine-prime-induced reinstatement of drug seeking. The class given is in vivo. The conditions noted are these: for inactive lever pressing during self-administration, extinction and reinstatement: 2 1.0 mg/kg, 24 1.0 mg/kg, 36 0.3 mg/kg; for dose required to significantly reduce active lever responses: ip, cocaine-prime-induced reinstatement, rat.

The test system of data set [5] is male Sprague–Dawley rats. The conditions noted are these: rat, in vivo; cited from earlier work.

human μ-opioid receptor, sequence (P35372 whole entry): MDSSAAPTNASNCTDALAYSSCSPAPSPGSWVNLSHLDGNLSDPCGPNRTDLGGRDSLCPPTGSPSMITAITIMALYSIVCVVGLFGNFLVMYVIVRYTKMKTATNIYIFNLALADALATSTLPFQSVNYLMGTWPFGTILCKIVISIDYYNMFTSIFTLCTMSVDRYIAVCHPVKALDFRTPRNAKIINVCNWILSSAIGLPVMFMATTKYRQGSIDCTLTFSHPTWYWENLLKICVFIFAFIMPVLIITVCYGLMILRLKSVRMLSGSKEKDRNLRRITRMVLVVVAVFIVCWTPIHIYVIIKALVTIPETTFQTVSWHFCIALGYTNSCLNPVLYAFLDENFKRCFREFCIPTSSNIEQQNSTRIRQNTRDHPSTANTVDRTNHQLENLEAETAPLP
human κ-opioid receptor, sequence (P41145 whole entry): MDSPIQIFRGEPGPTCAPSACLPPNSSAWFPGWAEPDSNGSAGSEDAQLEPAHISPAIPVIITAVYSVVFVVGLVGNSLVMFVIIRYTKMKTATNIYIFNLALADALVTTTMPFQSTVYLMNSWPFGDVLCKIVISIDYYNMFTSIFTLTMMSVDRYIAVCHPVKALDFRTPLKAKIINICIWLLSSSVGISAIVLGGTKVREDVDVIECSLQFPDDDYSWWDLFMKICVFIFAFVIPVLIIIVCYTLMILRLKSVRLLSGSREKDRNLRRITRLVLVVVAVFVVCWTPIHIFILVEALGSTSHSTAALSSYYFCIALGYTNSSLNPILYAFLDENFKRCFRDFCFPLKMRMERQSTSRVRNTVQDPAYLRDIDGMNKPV

For the compound `COC(=O)[C@@H]1C[C@H](OC(C)=O)C(=O)[C@H]2[C@@]1(C)CC[C@H]1C(=O)O[C@H](c3ccoc3C#N)C[C@]21C` [Compound 50, (2S,4aR,6aR,7R,9S,10aS,10bR)-Methyl 9-Acetoxy-2-(2-cyanofuran-3-yl)-6a,10b-dimethyl-4,10-dioxododecahydro-1H-benzo[f]isochromene-7-carboxylate], the “times less potent than 36 (KOR)” value in data set [1] is recorded as “more than 500 times”.

As for `COC(=O)[C@@H]1C[C@H](OC(C)=O)C(=O)[C@H]2[C@@]1(C)CC[C@H]1C(=O)O[C@H](c3ccoc3C=O)C[C@]21C` [Compound 49, (2S,4aR,6aR,7R,9S,10aS,10bR)-Methyl 9-Acetoxy-2-(2-formylfuran-3-yl)-6a,10b-dimethyl-4,10-dioxododecahydro-1H-benzo[f]isochromene-7-carboxylate], the “times less potent than 29 (KOR)” value in data set [1] was “approximately 7 times”.

Regarding `COC(=O)[C@@H]1C[C@H](OC(C)=O)C(=O)[C@H]2[C@@]1(C)CC[C@H]1C(=O)O[C@H](c3ccoc3Br)C[C@]21C` [Compound 2], the “activity at the MOR” value in data set [2] is “no activity at the MOR”. Further, in data set [3], the “effect on spontaneous locomotor activity vs vehicle-treated animals” value (from here on “effect … vs vehicle-treated animals”) is listed as “no significant difference”. Moreover, in data set [4], the “inactive lever pressing during self-administration, extinction and reinstatement” value is “no significant changes”; the “dose required to significantly reduce active lever responses” value was found to be 0.3 mg/kg.

With `COC(=O)[C@@H]1C[C@H](OC(C)=O)C(=O)[C@H]2[C@@]1(C)CC[C@H]1C(=O)O[C@H](c3ccoc3)C[C@]21C` [Compound 1, Salvinorin A], in data set [5], the “effect on drug-seeking behavior and spontaneous locomotor activity” value is given as “reduces drug-seeking behavior at a dose that does not affect spontaneous locomotor activity”.

`COC(=O)[C@@H]1C[C@H](OC(C)=O)C(=O)[C@H]2[C@@]1(C)CC[C@H]1C(=O)O[C@H](c3ccoc3C)C[C@]21C` [Compound 24]: the “activity at the MOR” value in data set [2] is on record as “no activity at the MOR”. Also, in data set [3], the “effect … vs vehicle-treated animals” value is reported as “no significant difference”. Besides, in data set [4], the “inactive lever pressing during self-administration, extinction and reinstatement” value is listed as “no significant changes”.

As to `C#Cc1occc1[C@@H]1C[C@]2(C)[C@H]3C(=O)[C@@H](OC(C)=O)C[C@@H](C(=O)OC)[C@]3(C)CC[C@H]2C(=O)O1` [Compound 36], the “activity at the MOR” value in data set [2] was “no activity at the MOR”. Also, the “effect … vs vehicle-treated animals” value in data set [3] is on record as “no significant difference”. For the same compound, in data set [4], the “inactive lever pressing during self-administration, extinction and reinstatement” value is listed as “no significant changes”; the “dose required to significantly reduce active lever responses” value was 0.1 mg/kg.
